# Measurements reported in EP4178570B1, “VETERINARY COMPOSITIONS FOR PREVENTING AND/OR TREATING LEISHMANIOSIS” (priority 2020, dated 2022).
# “And” between values parts separate entries of the source, which are not always exact repeats. Equal values may be shown once.
# Legend:
# L. infantum = experiment: Clinical evaluation (clinical score) in open-label randomized comparative clinical field trial of canine leishmaniosis; type: in vivo, dogs
# Description: This was an open-label randomized comparative clinical field trial conducted in the north of Algeria. Prevalence observed in this area was 36%. Client-owned dogs of any age, breed, or gender were enrolled and 11 veterinary practitioners were responsible of the monitoring. All dogs had previously been naturally infected by L. infantum and presented clinical signs. The dogs were fully monitored and treatment could be changed to antimoniate meglumine/allopurinol at the owner's request if clinical impairment was noticed. A total of 187 dogs were enrolled for CanL. Among them, 42 adult sick dogs (30 males and 12 females), 3.8 years average age (min=1, max=11 years), weighing between 3-37 kg and of different breeds (8 german shepherd, 1 belgian shepherd malinois, 2 sloughy, 5 pointers, 6 braques, 1 bagnole, 1 americain staff, 1 beagle and 17 mixed breeds), were selected for this study.
# Main inclusion criteria were: i) Dogs with at least two clinical manifestations related to CanL as detailed in the following Table 1) and ii) Dogs with positive serology for Leishmania by the immunochromatographic based qualitative rapid test WITNESS® Leishmania (Zoetis, France) and/or the quantitative indirect immunofluorescence antibody test (IFAT≥ 100) or positive PCR result obtained in blood.
# Efficacy criteria were determined by reduction in clinical scores (i.e. the sum of clinical scores was lower than before treatment), in decreasing of parasite DNA and Leishmaniaspecific antibody titers. The score was defined according to the severity of each clinical sign and the final value was obtained from the sum of all the values (Table 1). Quantitative parasite load was estimated through qPCR and the antibody titers through quantitative IFAT. Table 1: Clinical signs related to CanL defined to evaluate the clinical scores of dogs.
# Each manifestation was assigned a severity score ranging from 0 to 3, where 0 = none, 1 = mild, 2 = moderate, and 3 = severe (maximum total clinical score = 21). Mortality related to CanL was assessed by the highest score (22).
# (§1) Selected dogs were included randomly to one of the two treatment arms. Dogs (N=26) in the Group 1: (positive control) received 100 mg/kg Antimoniate of meglumine (Glucantime®, Merial, France) daily for 28 days subcutaneously, and 30 mg/kg allopurinol (Allopurinol Arraw® 300 mg, France) orally daily for one month. Dogs (N=16) in the Group 2: (chemotherapy of the invention) received 25 mg/kg artesunate (Asu-Denk®; Denk Pharma, Germany) orally for 6 days. […] Dogs were followed up for 180 days (Figure 1).
# (§2) Animals were checked on days D0, D+30, D+90 and D+180 after the treatment had started and blood samples were collected each time-points. Clinical signs and lesions associated with leishmaniosis, infection status (parasite load-qPCR and serological) were evaluated and monitored in these points.
# The efficacy of treatments was assessed at each time-point based on the clinical response to treatment (evolution of clinical scores over time and the percentage reduction of the total clinical score). For each dog, the same veterinarian conducted all clinical evaluations to maintain consistency. Mortality due to CanL constitutes the higher score (22). The percentage of reduction was calculated according to the formula: Percentage reduction of CS % = (CSatD+XX−CSatD+0)/CS at D + 0) × 100 [formula]
# [1] = tested on: L. infantum life stage forms (promastigote and amastigote); conditions: Cortes et al., 2015; cited from earlier work
# [2] = tested on: anti-L. infantum specific immunoglobulins G (IgG); experiment: Serological monitoring by quantitative IFAT in the field trial; type: in vivo, dogs; conditions: for Leishmania-antibody titers (mean ± SD), IFAT: artesunate 25 mg/kg orally 6 days, Glucantime 100 mg/kg s.c. 28 days + allopurinol 30 mg/kg orally one month
# Method: as §1, §2
# At day 0, the immunochromatographic based qualitative rapid test WITNESS® Leishmania (Zoetis, France) was performed according to the manufacturer's instructions using one drop (10 µL) of whole blood from each dog directly after sampling. Quantitative IFAT for the titration of anti-L. infantum specific immunoglobulins G (IgG) was performed on sera for the monitoring as described previously. Briefly, plate wells were sensitized by 20 µL of L. infantum commercial antigens (Zoetis, France). After dilution to 1:50, 20 µl of every serum dilution was applied per well and plates were incubated for 30 min at 37 °C. Plates were washed twice with PBS for 5 min and once with distilled water. 20 µL of IgG anti-dog conjugated with fluorescein isothiacyanate (FITC) (Sigma-Aldrich, St Louis, MO, USA) were added into each well. The plates were incubated for 30 min at 37 °C in the dark. After another washing step, some drops of mounting medium were added on the cover slips and reading was performed. To avoid errors of observation, all samples were examined by two different investigators and positive and negative controls were added in each plate. All samples negative at 1:50 were considered negative. Positive results were further investigated using a […] serial dilution IFAT at 1:100 to 1:1600. At this point, the samples were classified as a high positive for L. infantum (> 1:1600).
# L. infantum DNA = experiment: Parasite load-qPCR in blood (kDNA) in the field trial; type: in vivo, dogs; parameters: Parasitemia (% of reduction): concentration or dose not given beside the values; conditions: for Parasitemia No. Leish/mL of blood / Parasitemia (% of reduction): individual dogs (one table line per dog); for Parasitemia No. Leish/mL of blood: artesunate 25 mg/kg orally 6 days, Glucantime 100 mg/kg s.c. 28 days + allopurinol 30 mg/kg orally one month
# Method: as §1, §2
# Blood samples collected in each time-point were analyzed for quantification of parasitic load by qPCR using primers and probe for detection and quantification of L. infantum DNA, targeting a conserved region of the kinetoplast minicircle DNA (kDNA) (several 1000's-fold repeated sequence). Prior to DNA extraction, 200 µL of blood were digested with proteinase K and incubated at +56°C overnight. Extraction was performed using a commercial DNA extraction kit (QIAamp DNA Mini Kit®, [Qiagen, Courtaboeuf, France]) and performed on BIOROBOT EZ1 (Qiagen, Qiagen, Courtaboeuf, France) per the manufacturer's instructions. DNA was eluted in 200 µl of distilled water and stored at -20°C until analysis. qPCR was prepared and performed as follows: 20 µL final volume containing 10 µL of Eurogentec Master Mix Roche (Eurogentec, Liège, Belgium), […] of each primer and the probe, 0.5 µL UDG, 3 µL of distilled water DNAse and RNAse free, and 5 µl of the DNA sample, was amplified in a CFX96 Real-Time system (BioRad Laboratories, Foster City, CA, USA) using the following thermal profile: one incubation step at 50°C for two minutes and an initial denaturation step at 95°C for three minutes, followed by 40 cycles of denaturation at 95°C for 15 seconds and annealing extension at 60°C for 30 seconds. Quantification was based on a standard curve which was 8 folds-serial dilution of plasmid of 10^8 copy of DNA/mL from the kDNA region, equivalent of 10000 parasites/mL; 5 µl of serial dilutions ranging from 10000 to 0.001 parasites/mL, was introduced into reaction tubes. Results were expressed as the number of Leishmania parasites present in 1 ml of blood, taking in account the volume (200 µl of blood) and the elution (200 µl) introduced during the extraction process.
# [3] = D+30, artesunate 25 mg/kg orally 6 days (n=15), Glucantime 100 mg/kg s.c. 28 days + allopurinol 30 mg/kg orally one month (n=26)
# [4] = D+30, mortality related to CanL included, artesunate 25 mg/kg orally 6 days (n=15), Glucantime 100 mg/kg s.c. 28 days + allopurinol 30 mg/kg orally one month (n=26)
# [5] = D+90, artesunate 25 mg/kg orally 6 days (n=15), Glucantime 100 mg/kg s.c. 28 days + allopurinol 30 mg/kg orally one month (n=23)
# [6] = D+90, mortality related to CanL included, artesunate 25 mg/kg orally 6 days (n=15), Glucantime 100 mg/kg s.c. 28 days + allopurinol 30 mg/kg orally one month (n=23)
# [7] = D+180, artesunate 25 mg/kg orally 6 days (n=15), Glucantime 100 mg/kg s.c. 28 days + allopurinol 30 mg/kg orally one month (n=22)
# [8] = D+180, mortality related to CanL included, artesunate 25 mg/kg orally 6 days (n=15), Glucantime 100 mg/kg s.c. 28 days + allopurinol 30 mg/kg orally one month (n=22)
compound,measurement,setting,value
C[C@H]1[C@H](OC(=O)CCC(=O)O)O[C@@H]2O[C@@]3(C)CC[C@H]4[C@H](C)CC[C@@H]1[C@@]24OO3 [Artesunate],"mean percentage of reduction of clinical score, comparison between the two groups","L. infantum; D+30, D+90 and D+180, p<0.0001 (Mann-Whitney)",More improvement
same,PARTIAL AMELIORATION (%),L. infantum; [3],80%
same,"PARTIAL AMELIORATION, number of dogs",L. infantum; [3],12
same,AGGRAVATION (%),L. infantum; [4],20%
same,"AGGRAVATION, number of dogs",L. infantum; [4],3
same,COMPLETE AMELIORATION (%),L. infantum; [5],20%
same,"COMPLETE AMELIORATION, number of dogs",L. infantum; [5],3
same,NO CHANGE (%),L. infantum; [5],6.66%
same,"NO CHANGE, number of dogs",L. infantum; [5],1
same,PARTIAL AMELIORATION (%),L. infantum; [5],53.33%
same,"PARTIAL AMELIORATION, number of dogs",L. infantum; [5],8
same,AGGRAVATION (%),L. infantum; [6],20%
same,"AGGRAVATION, number of dogs",L. infantum; [6],3
same,PARTIAL AMELIORATION (%),"L. infantum; D+180 (6 months following up), artesunate 25 mg/kg orally 6 days (n=15), Glucantime 100 mg/kg s.c. 28 days + allopurinol 30 mg/kg orally one month (n=22)",46.66%
same,"COMPLETE AMELIORATION (%) (complete recovery, CS of 0)",L. infantum; [7],approximately 26.66%
same,"COMPLETE AMELIORATION, number of dogs",L. infantum; [7],4
same,"PARTIAL AMELIORATION, number of dogs",L. infantum; [7],7
same,"COMPLETE AMELIORATION (%) (complete recovery, CS of 0)","L. infantum; D+180, artesunate 25 mg/kg orally 6 days (n=15), Glucantime 100 mg/kg s.c. 28 days + allopurinol 30 mg/kg orally one month (n=22), listed as ARTESUNATE",26.66%
same,AGGRAVATION (%) (clinical aggravation rates),L. infantum; [8],26.66%
same,"AGGRAVATION, number of dogs",L. infantum; [8],4
same,mortality,"L. infantum; D+180, part of the aggravation rate, artesunate 2/15, control group 4/22",13.33%
same,dogs died with increasing in the clinical signs related to CanL,L. infantum; between D+60 after the beginning of treatments and the visit D+90,two
same,in vitro activity against L. infantum life stage forms (promastigote and amastigote),[1],in vitro activity
same,"Leishmania-antibody titers (mean ± SD), IFAT",[2]; D+30,128.57 ± 212.78
same,dogs that became seronegative,"[2]; D+ 30, artesunate 7/14, Glucantime/allopurinol 4/26",50%
same,dogs with diminution in antibody titers,"[2]; D+ 30, artesunate 11/14, Glucantime/allopurinol 15/26",78.57%
same,"Leishmania-antibody titers (mean ± SD), IFAT",[2]; D+ 180,37.50 ± 60.77
same,dogs turned seronegative,"[2]; end of the follow-up, Group 1 5/17, Group 2 7/12, P-Value 0.227",58.33%
same,"percentage of reduction in antibody titers, comparison of groups","[2]; end of the study, P <0.0001",higher percentage of reduction
same,Parasitemia No. Leish/mL of blood,L. infantum DNA; D+30,"0 No. Leish/mL of blood and 14 No. Leish/mL of blood and 44 No. Leish/mL of blood and 1,7 No. Leish/mL of blood and 0,17 No. Leish/mL of blood"
same,Parasitemia (% of reduction),L. infantum DNA; D+30 versus D0,"100% and 19,54% and 63,93% and 99,27% and 98,45%"
same,Parasitemia No. Leish/mL of blood,L. infantum DNA; D+ 90,0 No. Leish/mL of blood (3×) and 29 No. Leish/mL of blood
same,Parasitemia (% of reduction),L. infantum DNA; D+ 90 versus D0,"100% (3×) and -66,67%"
same,Parasitemia No. Leish/mL of blood,L. infantum DNA; D+ 180,0 No. Leish/mL of blood
same,Parasitemia (% of reduction),L. infantum DNA; D+ 180 versus D0,100%
same,initially PCR-positive dogs that turned out to be Leishmania-negative,"L. infantum DNA; qPCR in blood, over-time after treatment, dogs negative / dogs positive at D0",5/5
CC1CCC2C(C)C(OC(=O)CCC(=O)O)OC3OC4(C)CCC1C32O4 (centres unmarked) [deoxygenated artesunate],in vitro activity against L. infantum life stage forms (promastigote and amastigote),[1],in vitro activity
CC1CCC2C(C)C(O)OC3OC4(C)CCC1C32O4 (centres unmarked) [deoxygenated dihydroartemisinin],in vitro activity against L. infantum life stage forms (promastigote and amastigote),[1],in vitro activity
